From article PMC7926793, “Synthesis and Biological Evaluation of 1-(Diarylmethyl)-1H-1,2,4-triazoles and 1-(Diarylmethyl)-1H-imidazoles as a Novel Class of Anti-Mitotic Agent for Activity in Breast Cancer” (Pharmaceuticals, 2021)
pIC50: −log10 of the molar value. “And” between values parts separate entries of the source, which are not always exact repeats. Equal entries are not always repeated. Where two headings read alike, the source gives them in different places.

How the values were obtained:
NCI-H23 = experiment: NCI 60 cell line screen (Non-Small Cell Lung Cancer); type: cell-based, human; conditions: for GI50: Homo sapiens, NCI-H23, NCI 5 dose assay; for Growth percentage: NCI-H23, single dose 10 µM
HT29 = experiment: NCI 60 cell line screen (Colon Cancer); type: cell-based, human; conditions: for Growth percentage: HT29, single dose 10 µM; for GI50: Homo sapiens, HT-29, HT29, NCI 5 dose assay
ACHN = experiment: NCI 60 cell line screen (Renal Cancer); type: cell-based, human; conditions: for GI50: Homo sapiens, NCI 5 dose assay; for Growth percentage: single dose 10 µM
[1] = toxicity evaluation, alamarBlue assay; type: cell-based, human; conditions: human, MCF-10A cells; for viability at 24 h, 1 µM: read-out: cell viability
K-562 = experiment: NCI 60 cell line screen (Leukemia); type: cell-based, human; conditions: for GI50: Homo sapiens, K562, K-562, NCI 5 dose assay; for Growth percentage: K-562, single dose 10 µM
MCF-7 = experiment: NCI 60 cell line screen (Breast Cancer); type: cell-based, human; conditions: for GI50: Homo sapiens, MCF7, MCF-7, NCI 5 dose assay; for Growth percentage: MCF-7, single dose 10 µM
SW-620 = experiment: NCI 60 cell line screen (Colon Cancer); type: cell-based, human; conditions: for GI50: Homo sapiens, SW-620, NCI 5 dose assay; for Growth percentage: SW-620, single dose 10 µM
HS 578T = experiment: NCI 60 cell line screen (Breast Cancer); type: cell-based, human; conditions: for GI50: Homo sapiens, NCI 5 dose assay; for Growth percentage: single dose 10 µM
CYP19 (aromatase) = molecular target: T1, CYP19 (aromatase) (Homo sapiens, UniProt P11511); experiment: cytochrome P450 assay (DBF fluorescence); conditions: for pIC50: IC50 CYP19; for inhibition at 20 µg/mL: read-out: % Inhibition at 20 µg/mL CYP19
T1 sequence (P11511 1-503): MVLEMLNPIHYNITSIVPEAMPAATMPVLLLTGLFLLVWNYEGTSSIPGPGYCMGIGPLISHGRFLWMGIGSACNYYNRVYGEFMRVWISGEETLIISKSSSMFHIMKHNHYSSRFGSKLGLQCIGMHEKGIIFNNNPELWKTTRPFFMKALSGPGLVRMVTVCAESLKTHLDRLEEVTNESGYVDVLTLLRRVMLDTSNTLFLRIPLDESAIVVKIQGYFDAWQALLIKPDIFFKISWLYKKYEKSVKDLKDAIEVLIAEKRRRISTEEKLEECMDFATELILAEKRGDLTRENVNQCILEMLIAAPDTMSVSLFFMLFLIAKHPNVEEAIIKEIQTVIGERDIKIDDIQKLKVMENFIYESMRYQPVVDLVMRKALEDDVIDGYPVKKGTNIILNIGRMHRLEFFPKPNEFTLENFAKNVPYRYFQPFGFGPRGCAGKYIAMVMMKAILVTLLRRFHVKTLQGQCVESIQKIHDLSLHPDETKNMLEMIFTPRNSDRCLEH

NCI 60 cell line panel = experiment: NCI 60 cell line screen, panel means; type: cell-based, human; conditions: for Mean Growth percentage: 60 cell line panel, single dose 10 µM; for GI50 / LC50 (50% lethal concentration): Homo sapiens; for mean growth: 10 μM
NCI/ADR-RES = experiment: NCI 60 cell line screen (Ovarian Cancer); type: cell-based, human; conditions: for GI50: Homo sapiens, NCI 5 dose assay; for Growth percentage: single dose 10 µM
SK-MEL-5 = experiment: NCI 60 cell line screen (Melanoma); type: cell-based, human; conditions: for GI50: Homo sapiens, SK-MEL-5, NCI 5 dose assay; for Growth percentage: SK-MEL-5, single dose 10 µM
SF295 = experiment: NCI 60 cell line screen (CNS Cancer); type: cell-based, human; conditions: for GI50: Homo sapiens, SF-295, SF295, NCI 5 dose assay; for Growth percentage: SF295, single dose 10 µM
OVCAR-8 = experiment: NCI 60 cell line screen (Ovarian Cancer); type: cell-based, human; conditions: for GI50: Homo sapiens, OVCAR-8, NCI 5 dose assay; for Growth percentage: OVCAR-8, single dose 10 µM
U251 (AC in Table 3) = experiment: NCI 60 cell line screen (CNS Cancer); type: cell-based, human; conditions: for GI50: Homo sapiens, U-251, cell line printed AC, NCI 5 dose assay; for Growth percentage: U251, single dose 10 µM
786-0 = experiment: NCI 60 cell line screen (Renal Cancer); type: cell-based, human; conditions: for Growth percentage: 786-0, single dose 10 µM; for GI50: Homo sapiens, 786-0, NCI 5 dose assay
SN12C = experiment: NCI 60 cell line screen (Renal Cancer); type: cell-based, human; conditions: for GI50: Homo sapiens, NCI 5 dose assay; for Growth percentage: single dose 10 µM
UACC-62 = experiment: NCI 60 cell line screen (Melanoma); type: cell-based, human; conditions: for GI50: Homo sapiens, UACC-62, NCI 5 dose assay; for Growth percentage: UACC-62, single dose 10 µM
[2] = read-out: percentage of viable cells
[3] = 72 h, read-out: percentage of viable cells
[4] = 10 μM, read-out: percentage of viable cells
[5] = 60 cell, NCI 5 dose assay, 60 cell lines, read-out: MG-MID (mean of GI50 values over all cell lines)

## COc1ccc(C(c2cc(OC)c(OC)c(OC)c2)n2cncn2)cc1O (stereo not drawn) [19e, 5-((1H-1,2,4-Triazol-1-yl)(3,4,5-Trimethoxyphenyl)methyl)-2-Methoxyphenol]
NCI-H23
  GI50: 0.977 µM
  Growth percentage: 39.85%
HT29
  Growth percentage: 5.30%
  GI50: 0.33 µM
ACHN
  GI50: 0.653 µM
  Growth percentage: 52.36%
[1]
  viability at 48 h, 0.4 µM: ~100%
  viability at 48 h, 0.5 µM: ~100%
  viability at 24 h, 1 µM: 99%
[1]; [2]
  viability at 48 h, 1 µM: > 94%
[1]; [3]
  viability at 72 h, 1 µM: > 80%
[1]; [4]
  viability at 48 h, 10 µM: ~30%
K-562
  GI50: 0.427 µM
  Growth percentage: 8.34%
MCF-7
  GI50: 0.347 µM
  Growth percentage: 17.87%
SW-620
  GI50: 0.431 µM
  Growth percentage: 29.08%
HS 578T
  GI50: 0.548 µM
  Growth percentage: 31.34%
CYP19 (aromatase)
  pIC50: 4.54 and 4.53
  inhibition at 20 µg/mL: 85.3%
CYP19 (aromatase); read-out: inhibition of CYP19
  inhibition at 20 µM: > 85%
NCI 60 cell line panel
  Mean Growth percentage: 26.24%
NCI 60 cell line panel; 60 cell lines
  MID TGI (total growth inhibition): 53.7 µM
NCI 60 cell line panel; [5]
  GI50: 0.243 µM
NCI/ADR-RES
  GI50: 1.18 µM
  Growth percentage: 1.80%
SK-MEL-5
  GI50: 0.44 µM
  Growth percentage: 14.60%
SF295
  GI50: 0.325 µM
  Growth percentage: 2.56%
OVCAR-8
  GI50: 1.14 µM
  Growth percentage: 13.43%
U251 (AC in Table 3)
  GI50: 0.446 µM
  Growth percentage: 15.32%
786-0
  Growth percentage: 28.10%
  GI50: 0.475 µM
SN12C
  GI50: 0.853 µM
  Growth percentage: 39.32%
UACC-62
  GI50: 0.55 µM
  Growth percentage: 32.04%

## COc1ccc(C(c2cc(OC)c(OC)c(OC)c2)n2nccn2)cc1O (stereo not drawn) [compound 24]
[1]; 0.1 μM, 72 h, read-out: percentage of viable cells
  viability at 72 h, 0.1 µM: 96%
[1]; [3]
  viability at 72 h, 1 µM: 71%
[1]; 10 μM, 72 h, read-out: percentage of viable cells
  viability at 72 h, 10 µM: 61%
CYP19 (aromatase)
  pIC50: < 4.27
  inhibition at 20 µg/mL: 0.01%

## COc1ccc(C(c2cc(OC)c(OC)c(OC)c2)N2CCCC2)cc1 (stereo not drawn) [25g]
NCI-H23
  Growth percentage: 85.27%
HT29
  Growth percentage: 40.59%
ACHN
  Growth percentage: 103.18%
K-562
  Growth percentage: 25.23%
MCF-7
  Growth percentage: 64.09%
SW-620
  Growth percentage: 47.76%
HS 578T
  Growth percentage: 80.45%
NCI 60 cell line panel
  Mean Growth percentage: 73.14% and 73.1%
NCI/ADR-RES
  Growth percentage: 69.39%
SK-MEL-5
  Growth percentage: 65.20%
SF295
  Growth percentage: 69.71%
OVCAR-8
  Growth percentage: 95.58%
U251 (AC in Table 3)
  Growth percentage: 77.78%
786-0
  Growth percentage: 93.40%
SN12C
  Growth percentage: 108.47%
UACC-62
  Growth percentage: 57.35%

## COc1ccc(C(c2cc(OC)c(OC)c(OC)c2)N2CCN(Cc3ccccc3)CC2)cc1 (stereo not drawn) [27d]
NCI-H23
  Growth percentage: 88.53%
HT29
  Growth percentage: 28.31%
ACHN
  Growth percentage: 92.77%
K-562
  Growth percentage: 26.38%
MCF-7
  Growth percentage: 47.67%
SW-620
  Growth percentage: 43.57%
HS 578T
  Growth percentage: 59.07%
NCI 60 cell line panel
  Mean Growth percentage: 65.45% and 65.5%
NCI/ADR-RES
  Growth percentage: 61.59%
SK-MEL-5
  Growth percentage: 52.63%
SF295
  Growth percentage: 68.71%
OVCAR-8
  Growth percentage: 92.58%
U251 (AC in Table 3)
  Growth percentage: 62.75%
786-0
  Growth percentage: 82.57%
SN12C
  Growth percentage: 88.36%
UACC-62
  Growth percentage: 49.44%

## COc1ccc(C(c2cc(OC)c(OC)c(OC)c2)n2ccnc2)cc1O (stereo not drawn) [21l, 5-((1H-Imidazol-1-yl)(3,4,5-Trimethoxyphenyl)Methyl)-2-Methoxyphenol]
NCI-H23
  GI50: 0.882 µM
  Growth percentage: 38.92%
HT29
  Growth percentage: 5.94%
  GI50: 0.312 µM
ACHN
  GI50: 0.693 µM
  Growth percentage: 42.41%
[1]
  viability at 48 h, 0.4 µM: ~100%
  viability at 48 h, 0.5 µM: ~100%
  viability at 24 h, 1 µM: 73%
[1]; [2]
  viability at 48 h, 1 µM: 64%
[1]; [3]
  viability at 72 h, 1 µM: > 80%
[1]; [4]
  viability at 48 h, 10 µM: ~30%
K-562
  GI50: 0.225 µM
  Growth percentage: 8.00%
MCF-7
  GI50: 0.339 µM
  Growth percentage: 18.38%
SW-620
  GI50: 0.387 µM
  Growth percentage: 28.61%
HS 578T
  GI50: 0.414 µM
  Growth percentage: 29.10%
CYP19 (aromatase)
  inhibition at 20 µg/mL: 74.7%
NCI 60 cell line panel
  Mean Growth percentage: 23.38%
NCI 60 cell line panel; 60 cell lines
  MID TGI (total growth inhibition): 40.7 µM
NCI 60 cell line panel; 60 cell, CNS cancer cell lines, read-out: GI50 range
  GI50: 0.192 to 0.731 µM
NCI 60 cell line panel; [5]
  GI50: 0.234 µM
NCI 60 cell line panel; 60 cell, breast cancer panel, read-out: GI50 range
  GI50: 0.306 to 0.664 µM
NCI 60 cell line panel; 60 cell, COMPARE analysis text, read-out: LC50 values (all)
  LC50 (50% lethal concentration): > 100 µM
NCI 60 cell line panel; 60 cell lines, read-out: MID LC50
  LC50 (50% lethal concentration): > 100 µM
NCI/ADR-RES
  GI50: 1.92 µM
  Growth percentage: 12.06%
SK-MEL-5
  GI50: 0.367 µM
  Growth percentage: -12.88%
SF295
  GI50: 0.307 µM
  Growth percentage: -3.02%
OVCAR-8
  GI50: 0.45 µM
  Growth percentage: 10.28%
U251 (AC in Table 3)
  GI50: 0.391 µM
  Growth percentage: 15.52%
786-0
  Growth percentage: 19.99%
  GI50: 0.369 µM
SN12C
  GI50: 0.91 µM
  Growth percentage: 37.55%
UACC-62
  GI50: 0.668 µM
  Growth percentage: 36.48%

## COc1ccc(C(c2cc(OC)c(OC)c(OC)c2)N2CCCCC2)cc1 (stereo not drawn) [26b, 1-((4-Methoxyphenyl)(3,4,5-Trimethoxyphenyl)Methyl)Piperidine]
NCI-H23
  Growth percentage: 59.28%
HT29
  Growth percentage: 7.93%
ACHN
  Growth percentage: 50.89%
K-562
  Growth percentage: 18.04%
MCF-7
  Growth percentage: 23.57%
SW-620
  Growth percentage: 14.47%
HS 578T
  Growth percentage: 16.61% and 16.6%
NCI 60 cell line panel
  Mean Growth percentage: 34.17% and 34.2%
NCI 60 cell line panel; breast cancer panel
  mean growth: 30.3%
NCI 60 cell line panel; leukaemia panel
  mean growth: 23.5%
NCI/ADR-RES
  Growth percentage: 23.95%
SK-MEL-5
  Growth percentage: 29.49%
SF295
  Growth percentage: 18.75%
OVCAR-8
  Growth percentage: 50.11%
U251 (AC in Table 3)
  Growth percentage: 26.12%
786-0
  Growth percentage: 38.84%
SN12C
  Growth percentage: 54.32%
UACC-62
  Growth percentage: 18.17%
